Experiments:
[1] = biological target: Receptor tyrosine-protein kinase erbB-2 (Homo sapiens, UniProt P04626); assay: In Vitro Tyrosine Kinase Enzyme Assay
Protocol: (§1) Protein kinase assays were performed at ambient temperature for 20-40 min (depending on the target) in a final volume of 25 μl according to the following assay reaction recipe: […] of diluted active protein kinase target (~10-50 nM final protein concentration in the assay), 2.5 μl of peptide substrate, 3. μl of kinase assay buffer, 5 μl of compound or 10% DMSO, and 5 μl of 33P-ATP (250 μM stock solution, 0.8 mCi). The assay was initiated by the addition of 33P-ATP and the reaction mixture was incubated at ambient temperature for 20-40 min, depending on the protein kinase target. After the incubation period, the assay was terminated by spotting 10 μl of the reaction mixture onto Multiscreen phosphocellulose P81 plate. The Multiscreen phosphocellulose P81 plate was washed three times for approximately 15 min each in a 1% phosphoric acid solution. The radioactivity on the P81 plate (EMD Millipore Corporation, Billerica, MA) was counted in the presence of scintillation fluid in a Trilux scintillation counter (GMI Inc., Ramsey, MN).

[2] = biological target: Epidermal growth factor receptor (Homo sapiens, UniProt P00533); assay: In Vitro Tyrosine Kinase Enzyme Assay
Protocol: as §1

Chain of Receptor tyrosine-protein kinase erbB-2 (P04626 whole entry): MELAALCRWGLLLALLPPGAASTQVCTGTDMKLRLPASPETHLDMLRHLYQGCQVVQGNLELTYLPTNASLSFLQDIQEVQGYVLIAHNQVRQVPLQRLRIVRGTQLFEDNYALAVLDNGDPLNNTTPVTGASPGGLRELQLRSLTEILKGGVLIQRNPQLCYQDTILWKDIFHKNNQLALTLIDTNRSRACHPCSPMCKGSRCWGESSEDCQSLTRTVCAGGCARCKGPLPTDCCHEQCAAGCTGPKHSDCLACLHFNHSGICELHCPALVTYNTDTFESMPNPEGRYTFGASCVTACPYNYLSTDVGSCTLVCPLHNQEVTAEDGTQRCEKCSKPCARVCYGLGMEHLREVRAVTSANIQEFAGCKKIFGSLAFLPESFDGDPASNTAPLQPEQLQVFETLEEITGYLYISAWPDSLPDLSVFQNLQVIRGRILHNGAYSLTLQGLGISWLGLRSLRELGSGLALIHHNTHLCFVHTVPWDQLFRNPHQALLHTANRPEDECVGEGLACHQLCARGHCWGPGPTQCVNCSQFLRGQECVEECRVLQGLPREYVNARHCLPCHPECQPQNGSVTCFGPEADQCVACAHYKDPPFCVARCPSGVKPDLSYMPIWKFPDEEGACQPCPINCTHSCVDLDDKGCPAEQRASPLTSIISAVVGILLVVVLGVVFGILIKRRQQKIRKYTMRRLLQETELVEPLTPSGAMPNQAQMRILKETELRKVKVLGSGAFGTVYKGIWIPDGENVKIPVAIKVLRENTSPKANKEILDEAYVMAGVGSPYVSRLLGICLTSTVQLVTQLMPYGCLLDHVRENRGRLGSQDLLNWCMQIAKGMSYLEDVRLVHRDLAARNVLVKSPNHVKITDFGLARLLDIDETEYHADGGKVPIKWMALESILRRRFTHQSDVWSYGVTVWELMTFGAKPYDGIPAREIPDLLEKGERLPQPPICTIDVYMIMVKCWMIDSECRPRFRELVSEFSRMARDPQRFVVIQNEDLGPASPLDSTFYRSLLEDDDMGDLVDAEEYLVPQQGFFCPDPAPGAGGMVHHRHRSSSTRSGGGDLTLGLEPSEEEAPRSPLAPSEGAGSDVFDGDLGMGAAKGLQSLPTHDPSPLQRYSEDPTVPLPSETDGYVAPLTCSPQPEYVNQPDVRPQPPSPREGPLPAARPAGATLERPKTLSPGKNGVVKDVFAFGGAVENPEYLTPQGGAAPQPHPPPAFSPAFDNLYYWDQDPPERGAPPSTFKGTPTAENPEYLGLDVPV
Chain of Epidermal growth factor receptor (P00533 whole entry): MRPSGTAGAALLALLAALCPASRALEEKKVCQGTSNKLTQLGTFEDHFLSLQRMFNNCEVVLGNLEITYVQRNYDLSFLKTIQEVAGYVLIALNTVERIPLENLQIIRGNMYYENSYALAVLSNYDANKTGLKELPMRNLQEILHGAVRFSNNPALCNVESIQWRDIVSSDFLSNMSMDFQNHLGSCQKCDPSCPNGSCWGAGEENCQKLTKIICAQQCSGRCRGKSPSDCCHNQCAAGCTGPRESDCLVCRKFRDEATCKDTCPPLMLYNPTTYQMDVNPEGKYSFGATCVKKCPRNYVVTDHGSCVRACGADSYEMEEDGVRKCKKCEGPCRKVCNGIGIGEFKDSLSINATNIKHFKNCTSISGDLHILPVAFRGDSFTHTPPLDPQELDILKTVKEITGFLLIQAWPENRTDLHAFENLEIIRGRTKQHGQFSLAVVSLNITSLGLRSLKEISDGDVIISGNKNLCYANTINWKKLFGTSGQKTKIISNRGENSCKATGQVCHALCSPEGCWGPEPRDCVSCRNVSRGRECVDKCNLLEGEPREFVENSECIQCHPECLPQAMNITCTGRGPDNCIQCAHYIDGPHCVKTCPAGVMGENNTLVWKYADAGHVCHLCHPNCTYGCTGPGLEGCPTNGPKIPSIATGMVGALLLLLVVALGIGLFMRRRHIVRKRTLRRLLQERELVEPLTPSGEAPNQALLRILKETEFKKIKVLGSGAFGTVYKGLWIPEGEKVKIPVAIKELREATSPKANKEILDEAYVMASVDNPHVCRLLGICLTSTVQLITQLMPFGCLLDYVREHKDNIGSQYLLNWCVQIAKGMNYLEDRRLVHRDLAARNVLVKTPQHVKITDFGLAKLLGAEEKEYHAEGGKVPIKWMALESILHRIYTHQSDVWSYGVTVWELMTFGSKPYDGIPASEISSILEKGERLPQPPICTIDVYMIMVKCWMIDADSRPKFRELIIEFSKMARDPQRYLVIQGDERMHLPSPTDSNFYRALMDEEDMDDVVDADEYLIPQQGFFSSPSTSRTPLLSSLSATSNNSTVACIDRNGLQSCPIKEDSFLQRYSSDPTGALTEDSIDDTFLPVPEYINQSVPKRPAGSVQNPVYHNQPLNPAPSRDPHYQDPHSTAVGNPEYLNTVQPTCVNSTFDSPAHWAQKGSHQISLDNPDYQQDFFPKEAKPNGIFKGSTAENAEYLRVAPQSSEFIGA

Row | IC50 [1] [µM] | IC50 [2] [nM] | Compound
1 | 3.98 | 2090 | N#Cc1c(-c2ccc(F)cc2)cc(-c2ccc(Nc3ncnc4ccccc34)cc2)[nH]c1=N [HER2/EGFR dual kinase inhibitor, 5d]
2 | 1.04 | 1930 | COc1cc2ncnc(Nc3ccc(-c4cc(-c5ccc(Br)cc5)c(C#N)c(=N)[nH]4)cc3)c2cc1OC [HER2/EGFR dual kinase inhibitor, 5e]
3 | 98.8 | 2580 | COc1cc2ncnc(Nc3ccc(C(=O)/C=C/c4ccc(Cl)cc4)cc3)c2cc1OC [(E)-3-(4-Chlorophenyl)-1-{4-[(6,7-dimethoxyquinazolin-4-yl)amino]phenyl}prop-2-en-1-one]

From BindingDB's records for doi:10.3109/14756366.2013.765417 (Msa University, 2014)
